Legend:
[1] = system: beet armyworm (BAW; Spodoptera exigua: Lepidoptera); experiment: 128-well diet tray assay on beet armyworm (BAW 50); type: in vivo; settings: for BAW 50 ug/cm2: 128-well diet tray assay, 50 μg/cm^2 of test compound on diet, second instar BAW larvae, mortality class
Summary of the method: (§1)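 Mortality is the read-out for both formats, scored against a 50% cut-off. Microplate wells received eggs over diet carrying 12 μg test compound, kept in darkness at 29° C for 6 d, six replicates averaged. Diet-tray wells held second instar larvae on diet at 50 μg/cm^2, kept 6 d at 25° C under 14:10 photoperiod.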

[2] = system: beet armyworm (BAW; Spodoptera exigua: Lepidoptera); experiment: 96-well microtiter plate-based high throughput (HTS) diet bioassay on beet armyworm (BAW HTS); type: in vivo; settings: for BAW HTS: BAW eggs, 12 μg test compound per well, mortality at 6 d post-treatment, mortality class
Summary of the method: as §1

[3] = 96-well microtiter plate HTS diet assay

| Structure (SMILES) | BAW 50 ug/cm2 [1] | BAW HTS ([2]; 96-well HTS diet assay) | BAW HTS [2, 3] | BAW HTS ([2]; 96-well HTS diet bioassay) | pest or weed control at 50 µg/cm2, 50 µg/cm2 ([1]; Spodoptera exigua, 144 h, read-out: BAW 50 ug/cm2) [%] | pest or weed control at 12 µg/well, 12 µg/well ([2]; Spodoptera exigua, 144 h, read-out: BAW HTS) [%] |
| --- | --- | --- | --- | --- | --- | --- |
| CCO[C@@H]1[C@@H](OC)[C@H](C)O[C@@H](OC(=O)Nc2ccc(-c3nc(CCSC)n(-c4ccc(OC(F)(F)F)cc4)n3)cc2)[C@@H]1OC [Compound 221] | A (the compound was tested and at least 50 percent mortality was observed) | B (either (1) the compound was tested and less than 50 percent mortality was observed or (2) the compound was not tested) | B (either (1) the compound was tested and less than 50 percent mortality was observed or (2) the compound was not tested) |  |  |  |
| COC1C(C)OC(ON=C(C)c2ccc(-c3cn(-c4ccc(OC(F)(F)F)cc4)cn3)cc2)C(OC)C1OC (stereo not shown) [Compound 165] | A (the compound was tested and at least 50 percent mortality was observed) | B (either (1) the compound was tested and less than 50 percent mortality was observed or (2) the compound was not tested) | B (either (1) the compound was tested and less than 50 percent mortality was observed or (2) the compound was not tested) |  |  |  |
| COC1C(C)OC(ON=Cc2ccc(-c3ncn(-c4ccc(Cl)cc4)n3)cc2)C(OC)C1OC (stereo not shown) [Compound 84] | A (the compound was tested and at least 50 percent mortality was observed) |  | B (either (1) the compound was tested and less than 50 percent mortality was observed or (2) the compound was not tested) | B (either (1) the compound was tested and less than 50 percent mortality was observed or (2) the compound was not tested) |  |  |
| COC1C(C)OC(ON=Cc2ccc(-c3nn(-c4ccc(Cl)c(Cl)c4)c(=O)[nH]3)cc2)C(OC)C1OC (stereo not shown) [Compound 98] | A (the compound was tested and at least 50 percent mortality was observed) |  | B (either (1) the compound was tested and less than 50 percent mortality was observed or (2) the compound was not tested) | B (either (1) the compound was tested and less than 50 percent mortality was observed or (2) the compound was not tested) |  |  |
| CCO[C@@H]1[C@@H](OC)[C@H](C)O[C@@H](OC(=O)Nc2ccc(-n3ccn(-c4ccc(OC(F)(F)F)cc4)c3=O)cc2)[C@@H]1OC [Compound 187] | A (the compound was tested and at least 50 percent mortality was observed) | A (the compound was tested and at least 50 percent mortality was observed) | A (the compound was tested and at least 50 percent mortality was observed) |  |  |  |
| COC1C(C)OC(ON=Cc2ccc(-c3cccc(-c4ccc(OC(F)(F)F)cc4)n3)cc2)C(OC)C1OC (stereo not shown) [Compound 134] | A (the compound was tested and at least 50 percent mortality was observed) | B (either (1) the compound was tested and less than 50 percent mortality was observed or (2) the compound was not tested) | B (either (1) the compound was tested and less than 50 percent mortality was observed or (2) the compound was not tested) |  |  |  |
| CCO[C@@H]1[C@@H](OC)[C@H](C)O[C@H](OC(=O)Nc2ccc(-n3c(C(=O)OC)nn(-c4ccc(OC(F)(F)F)cc4)c3=O)cc2)[C@@H]1OC [Compound 227] | B (either (1) the compound was tested and less than 50 percent mortality was observed or (2) the compound was not tested) | B (either (1) the compound was tested and less than 50 percent mortality was observed or (2) the compound was not tested) | B (either (1) the compound was tested and less than 50 percent mortality was observed or (2) the compound was not tested) |  |  |  |
| CCO[C@@H]1[C@@H](OC)[C@H](C)O[C@H](OC(=O)Nc2ccc(-c3ncn(-c4ccc(OC(F)(F)C(F)(F)F)cc4)n3)cc2)[C@@H]1OC [Compound 202, {4-[1-(4-pentafluoroethyloxyphenyl)-1H-[1,2,4]triazol-3-yl]-phenyl}-carbamic acid (2R,3R,4R,5S,6S)-4-ethoxy-3,5-dimethoxy-6-methyl-tetrahydropyran-2-yl ester] | A (the compound was tested and at least 50 percent mortality was observed) |  | A (the compound was tested and at least 50 percent mortality was observed) |  | > 50 | > 50 |
| COC1C(C)OC(ON=Cc2ccc(-c3ncn(-c4cccc(OC(F)(F)F)c4)n3)cc2)C(OC)C1OC (stereo not shown) [Compound 91] | A (the compound was tested and at least 50 percent mortality was observed) |  | B (either (1) the compound was tested and less than 50 percent mortality was observed or (2) the compound was not tested) | B (either (1) the compound was tested and less than 50 percent mortality was observed or (2) the compound was not tested) |  |  |
| CCCCO[C@@H]1[C@@H](OC)[C@H](C)O[C@@H](OC(=O)Nc2ccc(-n3cnc(-c4ccc(C(F)(F)F)cc4)n3)cc2)[C@@H]1OC [Compound 198] | A (the compound was tested and at least 50 percent mortality was observed) | A (the compound was tested and at least 50 percent mortality was observed) | A (the compound was tested and at least 50 percent mortality was observed) |  |  |  |
| CCCOC1C(OC)C(C)OC(ON=Cc2ccc(-n3cnc(-c4ccc(C(F)(F)F)cc4)n3)cc2)C1OC (stereo not shown) [Compound 74] | A (the compound was tested and at least 50 percent mortality was observed) |  | B (either (1) the compound was tested and less than 50 percent mortality was observed or (2) the compound was not tested) | B (either (1) the compound was tested and less than 50 percent mortality was observed or (2) the compound was not tested) |  |  |
| CCCc1ccc(-c2cc(-c3ccc(C=NOC4OC(C)C(OC)C(OC)C4OC)cc3)no2)cc1 (stereo not shown) [Compound 60] | A (the compound was tested and at least 50 percent mortality was observed) |  | A (the compound was tested and at least 50 percent mortality was observed) | A (the compound was tested and at least 50 percent mortality was observed) |  |  |
| COC1C(C)OC(ON=Cc2ccc(-c3ncn(-c4ccc(C(C)(C)C)cc4)n3)cc2)C(OC)C1OC (stereo not shown) [Compound 86] | A (the compound was tested and at least 50 percent mortality was observed) |  | B (either (1) the compound was tested and less than 50 percent mortality was observed or (2) the compound was not tested) | B (either (1) the compound was tested and less than 50 percent mortality was observed or (2) the compound was not tested) |  |  |
| CCOC1C(OC)C(C)OC(ON=Cc2ccc(-c3ncc(-c4ccc(F)cc4)cn3)cc2)C1OC (stereo not shown) [Compound 153] | A (the compound was tested and at least 50 percent mortality was observed) | B (either (1) the compound was tested and less than 50 percent mortality was observed or (2) the compound was not tested) | B (either (1) the compound was tested and less than 50 percent mortality was observed or (2) the compound was not tested) |  |  |  |
| COC1C(C)OC(ON=Cc2ccc(-c3ncn(-c4ccc(OC(F)(F)C(F)F)cc4)n3)cc2)C(OC)C1OC (stereo not shown) [Compound 88] | A (the compound was tested and at least 50 percent mortality was observed) |  | B (either (1) the compound was tested and less than 50 percent mortality was observed or (2) the compound was not tested) | B (either (1) the compound was tested and less than 50 percent mortality was observed or (2) the compound was not tested) |  |  |
| CCOC1C(OC)C(C)OC(OC(=O)Nc2ccc(C3=NC(c4ccc(OC(F)(F)F)cc4)CO3)cc2)C1OC (mixture of isomers) [Compound 247] | A (the compound was tested and at least 50 percent mortality was observed) | B (either (1) the compound was tested and less than 50 percent mortality was observed or (2) the compound was not tested) | B (either (1) the compound was tested and less than 50 percent mortality was observed or (2) the compound was not tested) |  |  |  |
| COC1C(C)OC(ON=Cc2ccc(-c3csc(-c4ccc(OCC(F)(F)F)nc4)n3)cc2)C(OC)C1OC (stereo not shown) [Compound 64] | A (the compound was tested and at least 50 percent mortality was observed) |  | A (the compound was tested and at least 50 percent mortality was observed) | A (the compound was tested and at least 50 percent mortality was observed) |  |  |
| CCCc1ccc(-n2cnc(-c3ccc(/C=N/O[C@@H]4O[C@@H](C)[C@H](OC)[C@@H](OCC)[C@H]4OC)cc3)c2)cc1 [Compound 29] | A (the compound was tested and at least 50 percent mortality was observed) |  | B (either (1) the compound was tested and less than 50 percent mortality was observed or (2) the compound was not tested) | B (either (1) the compound was tested and less than 50 percent mortality was observed or (2) the compound was not tested) |  |  |
| CCOC1C(OC)C(C)OC(ON=Cc2ccc(-c3ncn(-c4ccc(OC(F)(F)F)cc4)n3)cc2)C1OC (stereo not shown) [Compound 120] | A (the compound was tested and at least 50 percent mortality was observed) |  | A (the compound was tested and at least 50 percent mortality was observed) | A (the compound was tested and at least 50 percent mortality was observed) |  |  |
| COC1C(C)OC(ON=Cc2ccc(-c3cnc(-c4ccc(OC(F)(F)F)cc4)nc3)cc2)C(OC)C1OC (stereo not shown) [Compound 137] | A (the compound was tested and at least 50 percent mortality was observed) | B (either (1) the compound was tested and less than 50 percent mortality was observed or (2) the compound was not tested) | B (either (1) the compound was tested and less than 50 percent mortality was observed or (2) the compound was not tested) |  |  |  |
